Experimental data reported in ChEMBL document CHEMBL3351855, “Synthesis and biological evaluation of (-)-6-O-desmethylcryptopleurine and analogs” (Bioorg Med Chem Lett, 2015).

How the values were obtained:
Format in all cases: functional, cell-based
[1] = Antiproliferative activity against human NAMALWA cells after 72 hrs by ATPlite assay; conditions: NAMALVA
A-375 = test: Antiproliferative activity against human A375 cells after 72 hrs by ATPlite assay; conditions: A-375, 72 h
[2] = Antiproliferative activity against human HCT116 cells after 72 hrs by ATPlite assay; conditions: HCT-116, 72 h
A549 = test: Antiproliferative activity against human A549 cells after 72 hrs by ATPlite assay; conditions: A549, 72 h

| Structure (SMILES) | IC50 [1] [nM] | IC50 (A-375) [nM] | IC50 [2] [nM] | IC50 (A549) [nM] |
| --- | --- | --- | --- | --- |
| COc1cc2c3c(c4ccc(O)cc4c2cc1OC)CN1CCCC[C@@H]1C3 | 4.1 | 1.6 | 1.4 | 2.5 |
| COc1cc2c3c(c4ccc(O)cc4c2cc1OC)CN1CCCC[C@@H]1C3=O | 60 | 56 | 21 | 65 |
| COc1cc2c3c(c4ccc(O)cc4c2cc1OC)CN1CCCC[C@@H]1[C@@H]3O | 1.1 | 0.3 | 0.3 | 1.4 |
| COc1cc2c3c(c4ccc(O)cc4c2cc1OC)CN1CCC[C@@H]1C3 | – | – | – | 1 |
| COc1ccc2c3c(c4cc(OC)c(OC)cc4c2c1)C[C@H]1CCCN1C3 [(-)-ANTOFINE] | – | – | – | 10 |
| COc1ccc2c3c(c4cc(OC)c(OC)cc4c2c1)C[C@H]1CCCCN1C3 [CRYPTOPLEURINE] | 2.6 | 1.2 | 0.7 | – |
